In ChEMBL document CHEMBL3217419, “Blockage of collagen binding to integrin 21: structureactivity relationship of proteinprotein interaction inhibitors” (Medchemcomm, 2011):

How the values were obtained:
[1] = molecular target: Integrin alpha-1 (Homo sapiens) (UniProt P56199); assay: Inhibition of human alpha1 integrin expressed in CHO cells binding to collagen I at 100 uM after 2 hrs by cell-adhesion-based WST-1 assay relative to control
[2] = molecular target: Integrin alpha-1 (Homo sapiens) (UniProt P56199); assay: Inhibition of human alpha1 integrin expressed in CHO cells binding to collagen I at 50 uM after 2 hrs by cell-adhesion-based WST-1 assay
Integrin alpha-1 = molecular target: T1, Integrin alpha-1 (Homo sapiens, UniProt P56199); assay: Inhibition of human alpha1 integrin expressed in CHO cells binding to collagen I after 2 hrs by cell-adhesion-based WST-1 assay
T1 sequence (P56199 whole entry): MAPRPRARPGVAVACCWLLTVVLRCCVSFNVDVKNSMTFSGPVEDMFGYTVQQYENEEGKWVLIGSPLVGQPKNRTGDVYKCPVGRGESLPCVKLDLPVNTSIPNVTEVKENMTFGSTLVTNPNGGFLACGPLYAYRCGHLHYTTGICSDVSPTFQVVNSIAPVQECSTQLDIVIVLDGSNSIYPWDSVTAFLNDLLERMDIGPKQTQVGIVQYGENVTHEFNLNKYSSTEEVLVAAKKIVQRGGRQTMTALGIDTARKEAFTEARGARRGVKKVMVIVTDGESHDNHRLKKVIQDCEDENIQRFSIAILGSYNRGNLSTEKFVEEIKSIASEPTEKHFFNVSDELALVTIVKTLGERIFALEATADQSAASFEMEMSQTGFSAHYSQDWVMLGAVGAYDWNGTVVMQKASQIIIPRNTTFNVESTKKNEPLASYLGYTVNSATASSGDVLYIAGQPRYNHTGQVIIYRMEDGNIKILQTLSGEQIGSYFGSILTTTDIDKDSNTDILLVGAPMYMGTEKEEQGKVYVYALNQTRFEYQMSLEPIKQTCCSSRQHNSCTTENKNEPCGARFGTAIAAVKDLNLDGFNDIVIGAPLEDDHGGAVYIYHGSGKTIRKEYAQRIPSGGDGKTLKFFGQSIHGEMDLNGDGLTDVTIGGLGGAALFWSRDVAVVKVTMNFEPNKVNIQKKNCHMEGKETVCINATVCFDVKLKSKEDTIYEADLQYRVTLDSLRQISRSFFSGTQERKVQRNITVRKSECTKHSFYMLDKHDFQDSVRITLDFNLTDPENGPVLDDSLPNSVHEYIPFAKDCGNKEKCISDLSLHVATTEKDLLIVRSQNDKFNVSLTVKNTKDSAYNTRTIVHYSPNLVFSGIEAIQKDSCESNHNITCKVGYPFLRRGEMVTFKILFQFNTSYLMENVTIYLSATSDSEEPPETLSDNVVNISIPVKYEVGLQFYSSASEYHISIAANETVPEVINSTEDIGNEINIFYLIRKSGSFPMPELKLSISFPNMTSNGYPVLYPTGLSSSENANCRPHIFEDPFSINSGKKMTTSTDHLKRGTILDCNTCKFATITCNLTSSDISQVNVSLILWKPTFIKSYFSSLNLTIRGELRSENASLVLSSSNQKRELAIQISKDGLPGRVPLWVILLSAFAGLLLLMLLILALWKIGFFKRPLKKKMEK

CHO [3] = assay: Cytotoxicity against CHO cells assessed as release of lactate dehydrogenase by resazurin assay; format: cell-based, Cricetulus griseus; settings: chinese hamster
CHO [4] = assay: Selectivity ratio of EC50 for human alpha2 integrin expressed in CHO cells binding to collagen IV to EC50 for human alpha1 integrin expressed in CHO cells binding to collagen I; format: cell-based
[5] = Lipophilicity, log P of the compound; format: physicochemical; settings: octanol/water
Integrin alpha2/beta1 = Integrin alpha2/beta1 (Homo sapiens, UniProt P05556+P17301); assay: Binding affinity to alpha2beta1 integrin (unknown origin); format: protein-complex assay
Chain of Integrin alpha2/beta1 (P05556 whole entry): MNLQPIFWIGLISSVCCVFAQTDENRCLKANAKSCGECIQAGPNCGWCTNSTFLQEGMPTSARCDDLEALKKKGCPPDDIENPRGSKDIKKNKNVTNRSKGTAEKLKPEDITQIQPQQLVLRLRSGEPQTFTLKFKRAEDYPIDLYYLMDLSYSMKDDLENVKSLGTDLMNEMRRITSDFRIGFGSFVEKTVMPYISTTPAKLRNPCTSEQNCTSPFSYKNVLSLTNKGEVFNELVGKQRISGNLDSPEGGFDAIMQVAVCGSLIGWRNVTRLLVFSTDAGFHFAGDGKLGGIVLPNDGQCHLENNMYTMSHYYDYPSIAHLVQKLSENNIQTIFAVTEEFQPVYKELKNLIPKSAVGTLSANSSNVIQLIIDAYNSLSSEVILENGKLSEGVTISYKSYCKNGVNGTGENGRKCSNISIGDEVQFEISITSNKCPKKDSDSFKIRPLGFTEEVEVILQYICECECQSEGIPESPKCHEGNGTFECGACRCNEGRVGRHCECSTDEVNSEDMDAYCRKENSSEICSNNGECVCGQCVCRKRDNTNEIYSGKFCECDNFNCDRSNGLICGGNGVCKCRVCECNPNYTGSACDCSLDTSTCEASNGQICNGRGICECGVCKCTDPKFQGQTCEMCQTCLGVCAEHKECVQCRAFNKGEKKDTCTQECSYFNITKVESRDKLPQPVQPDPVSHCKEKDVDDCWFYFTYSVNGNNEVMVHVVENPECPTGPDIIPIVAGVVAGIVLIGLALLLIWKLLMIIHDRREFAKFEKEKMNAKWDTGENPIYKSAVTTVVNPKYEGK
Chain of Integrin alpha2/beta1 (P17301 whole entry): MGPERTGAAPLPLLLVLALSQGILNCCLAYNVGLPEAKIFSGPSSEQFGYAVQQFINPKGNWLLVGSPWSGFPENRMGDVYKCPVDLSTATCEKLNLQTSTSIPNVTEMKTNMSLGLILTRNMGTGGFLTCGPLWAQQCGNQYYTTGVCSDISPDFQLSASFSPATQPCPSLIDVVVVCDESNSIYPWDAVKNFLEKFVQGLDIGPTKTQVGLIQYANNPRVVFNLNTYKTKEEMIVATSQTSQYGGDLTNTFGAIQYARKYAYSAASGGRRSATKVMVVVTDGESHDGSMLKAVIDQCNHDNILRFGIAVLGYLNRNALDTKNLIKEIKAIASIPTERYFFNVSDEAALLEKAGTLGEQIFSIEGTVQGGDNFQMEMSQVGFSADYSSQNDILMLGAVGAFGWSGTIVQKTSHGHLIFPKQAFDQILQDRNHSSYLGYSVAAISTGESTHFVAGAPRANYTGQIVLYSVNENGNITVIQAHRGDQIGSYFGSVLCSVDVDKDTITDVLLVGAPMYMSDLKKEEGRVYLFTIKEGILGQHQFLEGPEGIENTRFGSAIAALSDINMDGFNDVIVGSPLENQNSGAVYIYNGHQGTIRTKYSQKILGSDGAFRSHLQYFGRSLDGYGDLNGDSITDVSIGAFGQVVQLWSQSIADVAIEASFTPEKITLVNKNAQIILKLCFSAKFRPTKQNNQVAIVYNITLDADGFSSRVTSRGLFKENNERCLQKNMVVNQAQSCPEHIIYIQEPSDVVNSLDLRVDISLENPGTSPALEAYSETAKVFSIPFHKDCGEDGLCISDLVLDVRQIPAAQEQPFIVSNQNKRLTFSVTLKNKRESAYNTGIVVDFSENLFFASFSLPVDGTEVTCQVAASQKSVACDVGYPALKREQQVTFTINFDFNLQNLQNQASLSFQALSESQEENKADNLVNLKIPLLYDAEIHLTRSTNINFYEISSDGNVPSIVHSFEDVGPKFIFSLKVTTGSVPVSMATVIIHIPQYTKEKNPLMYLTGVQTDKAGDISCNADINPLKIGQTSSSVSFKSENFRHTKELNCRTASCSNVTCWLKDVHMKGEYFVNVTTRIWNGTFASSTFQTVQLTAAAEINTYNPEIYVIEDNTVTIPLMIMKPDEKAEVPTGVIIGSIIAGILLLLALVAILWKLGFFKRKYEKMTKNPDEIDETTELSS

Row | SMILES | Imax [1] | inhibition [2] | EC50 (Integrin alpha-1) | logP [5] | EC50 (Integrin alpha2/beta1) | Activity (CHO [3]) | Ratio EC50 (CHO [4])
1 | O=S(=O)(Nc1ccc2c(c1)Cc1ccccc1-2)c1ccc(Cl)cc1Cl | 87% | 70% |  | 4.1 |  | <= 200 uM | 0.8
2 | CN(c1ccc(C(=O)c2ccccc2)cc1)S(=O)(=O)c1ccc(Cl)cc1Cl |  | 0% | Not Active |  |  |  | 
3 | O=C(c1ccccc1)c1ccc(OS(=O)(=O)c2ccc(Cl)cc2Cl)cc1 |  | 0% | Not Active |  |  |  | 
4 | O=C(c1ccccc1)c1cccc(NS(=O)(=O)c2ccc(Cl)cc2Cl)c1 | 69% | 69% |  |  |  | <= 200 uM | 3
5 | CC(=O)c1cccc(NS(=O)(=O)c2ccc(Cl)cc2Cl)c1 |  | 0% | Not Active |  |  |  | 
6 | O=C(c1ccccc1)c1ccc(NS(=O)(=O)c2ccccc2)cc1 |  | 0% | Not Active |  |  | <= 200 uM | 
7 | O=C(c1ccccc1)c1ccc(NS(=O)(=O)c2cccc(-c3ccc(F)cc3)c2)cc1 |  |  |  |  | 2 µM |  | 
8 | O=C(c1ccccc1)c1ccc(OS(=O)(=O)c2cc(Cl)cc(Cl)c2O)cc1 | 95% | 86% |  | 3.1 |  | <= 100 uM | 2.8
9 | CN(c1cccc(C(=O)c2ccccc2)c1)S(=O)(=O)c1ccc(Cl)cc1Cl |  | 8% | Not Active |  |  |  | 
10 | CN(c1ccc2c(c1)C(=O)c1ccccc1-2)S(=O)(=O)c1ccc(Cl)cc1Cl |  | 0% | Not Active |  |  |  | 
11 | O=C1c2ccccc2-c2ccc(NS(=O)(=O)c3ccc(Cl)cc3Cl)cc21 | 93% | 93% |  |  |  | <= 200 uM | 1.2
12 | O=C(c1ccccc1)c1ccc(NS(=O)(=O)c2ccc(Cl)cc2Cl)cc1 | 82% | 82% |  | 3.5 |  | <= 20 uM | 1.5

Now from value to molecule, other results behind:

Row | Imax [1] | inhibition [2] | EC50 (Integrin alpha-1) | logP [5] | EC50 (Integrin alpha2/beta1) | SMILES | Activity (CHO [3]) | Ratio EC50 (CHO [4])
13 | 34% | 34% | Not Active |  |  | O=C(c1ccccc1)c1ccc(NS(=O)(=O)c2ccc(Br)cc2)cc1 | <= 200 uM | 
14 | 85% | 85% |  |  |  | O=C(c1ccccc1)c1ccc(NS(=O)(=O)c2ccc(I)cc2)cc1 | <= 200 uM | 1.3
15 |  | 4% | Not Active |  |  | O=C(c1ccccc1)c1cccc(NS(=O)(=O)c2ccccc2)c1 | <= 200 uM | 
16 | 72% | 72% |  |  |  | O=C(c1ccccc1)c1cccc(NS(=O)(=O)c2ccc(I)cc2)c1 | <= 200 uM | 
17 | 96% | 92% |  |  |  | O=C(c1ccccc1)c1cccc(NS(=O)(=O)c2ccc(Br)cc2)c1 | <= 200 uM | 2.2
18 | 35% | 35% | Not Active |  |  | Cc1ccc(S(=O)(=O)Nc2ccc(C(=O)c3ccccc3)cc2)cc1 | <= 200 uM | 
19 | 34% | 34% | Not Active |  |  | Cc1ccc(S(=O)(=O)Nc2cccc(C(=O)c3ccccc3)c2)cc1 | <= 200 uM | 
